In patent US11000516B2 (priority 2015, dated 2021):

Key:
[1] = test system: EDEN1 (clinical DENV1 isolate); experiment: Antiviral effect in BHK-21 cells, plaque assay of supernatant 48 h pi; type: cell-based
Description: (§1) Cells were infected with DENV strains for 1 hour at 37° C. and washed once with culture media. […] The supernatants were subjected to standard plaque assay and the EC50 values were determined using the GraphPad Prism software.
(§2) NITD008, an adenosine analog inhibitor of DENV polymerase (Yin et al., 2009) was used as a positive control.

[2] = test system: S221 (mouse-adapted DENV2 strain); experiment: as above; type: cell-based; conditions: Dengue virus, DENV2, BHK-21
Description: as §1, §2

[3] = test system: EDEN2 (clinical DENV2 isolate); experiment: as above; type: cell-based; conditions: Dengue virus, DENV2, BHK-21
Description: as §1, §2

[4] = test system: EDEN1 (clinical DENV1 isolate); experiment: Antiviral effect in Vero cells, plaque assay of supernatant 48 h pi; type: cell-based
Description: as §1, §2

[5] = test system: S221 (mouse-adapted DENV2 strain); experiment: as above; type: cell-based; conditions: S221, MOI 0.3
Description: as §1, §2

[6] = test system: EDEN2 (clinical DENV2 isolate); experiment: as above; type: cell-based; conditions: Dengue virus, DENV2, Vero
Description: as §1, §2

EDEN1 [7] = experiment: Non-lethal viremia mouse model; type: in vivo, mice
Description: (§3) Mice were inoculated i.v. with EDEN1 (7×10^7 pfu) or EDEN2 (1×10^8 pfu). […] Average viral copy numbers on day 1 and 2 were measured using mixed serum of each group. […] A P value less than 0.05 was considered significant (*P<0.05). The number of mice per group is 6. […] Average viral copy numbers on days 4 and 5 were measured using mixed serum of each group. […] The virological log reduction (VLR) from day 3 to day 6 was also shown as the mean value and standard deviations. The number of mice per group is 6.
(§4) Since dengue fever patients in general present at a clinic when viremia is at a peak level (Low et al., 2014; Nguyen et al., 2013; Tricou et al., 2010), we next compared the 2 different dosing regimens; one started at the time of infection and another started at the time of peak viremia (on day 3 pi) similar to human situation (FIG. 4A). In this experiment, we used a non-lethal viremia mouse model, which permits the tracking of viremia kinetics for a longer period of time (FIG. 1B).

EDEN2 [8] = experiment: Non-lethal viremia mouse model; type: in vivo, mice
Description: as §3, §4

[9] = over the tolerated dose range; cited from earlier work
S221 = experiment: Lethal ADE infection model in AG129 mice (4G2 Ab pre-injection); type: in vivo
Description: (§5) AG129 mice were inoculated i.v. with EDEN1 (7×10^7 pfu), EDEN2 (1×10^8 pfu) or S221 (2×10^4 pfu) for non-lethal infection. For the ADE infection (lethal), mice were pre-injected i.p. with 50 μg (for EDEN1 and EDEN2) or 10 μg (for S221) 4G2 Ab one day prior to infection. (A) Mouse survival rate was monitored by day 10 pi. (B) Blood samples were collected on days 1-8 pi and mixed serum from each group were subjected to real-time RT-PCR to obtain the average viral genome copy numbers. (C) Serum levels of TNFα and IL-6 were measured by ELISA assay. The numbers of mice per group are 6 (EDEN1) or 5 (EDEN2 and S221).
(§6) AG129 mice were pre-injected i.p. with 50 μg (for EDEN1 and EDEN2) or 10 μg (for S221) 4G2 Ab followed by next day inoculation i.v. with EDEN1 (7×10^7 pfu), EDEN2 (1×10^8 pfu) or S221 (2×10^4 pfu). […] (A) Mouse survival rate was monitored by day 10 pi. (B) Blood samples were collected on day 1-4 pi and mixed serum from each group were subjected to real-time RT PCR to obtain the average viral genome copy numbers (left panels). […] A P value less than 0.05 was considered significant (*P<0.05). The number of mice per group is 5.
as §6, with “with” for “with 50 μg (for EDEN1 and EDEN2) or 10 μg (for S221)”, “with EDEN1,” for “with EDEN1 (7×10^7 pfu),”, “EDEN2” for “EDEN2 (1×10^8 pfu)”, “S221 as described above.” for “S221 (2×10^4 pfu).”, “on days” for “on day”, “is 6.” for “is 5.”
(§7) AG129 mouse models of clinical DENV strains, EDEN1 and EDEN2, in addition to mouse-adapted S221 strain were developed. To increase infection level in mice, high virus titer of EDEN1 (7×10^7 pfu) and EDEN2 (1×10^8 pfu) were inoculated intravenously (iv) into AG129 mice.

EDEN1 [10] = experiment: as above; type: in vivo
Description: as §5, §6
as §6, with “with” for “with 50 μg (for EDEN1 and EDEN2) or 10 μg (for S221)”, “with EDEN1,” for “with EDEN1 (7×10^7 pfu),”, “EDEN2” for “EDEN2 (1×10^8 pfu)”, “S221 as described above.” for “S221 (2×10^4 pfu).”, “on days” for “on day”, “is 6.” for “is 5.”
as §7

EDEN2 [11] = experiment: as above; type: in vivo
Description: as §5, §6
as §6, with “with” for “with 50 μg (for EDEN1 and EDEN2) or 10 μg (for S221)”, “with EDEN1,” for “with EDEN1 (7×10^7 pfu),”, “EDEN2” for “EDEN2 (1×10^8 pfu)”, “S221 as described above.” for “S221 (2×10^4 pfu).”, “on days” for “on day”, “is 6.” for “is 5.”
as §7

DENV2 = experiment: Survival of DENV2 infected mice in a lethal ADE model of viremia (FIG. 5B); type: in vivo
Description: Survival at day 12 was 1/8 (13%) at 10 mg/kg twice daily (BID), 5/8 (63%) at 25 mg/kg BID, 7/7 (100%) at 50 mg/kg BID, and 0/8 (0%) at 100 mg/kg once daily (QD).

CCCC(=O)O[C@H]1CN2CC[C@H](O)[C@@H]2[C@@H](O)[C@@H]1O [celgosivir]
EC50 ([1]; BHK-21, BHK-21, EDEN1, MOI 0.01): 0.066 µM
EC50 ([1]; BHK-21, BHK-21, EDEN1, MOI 0.3): 0.105 µM
EC50 [2]: 0.119 µM
EC50 [3]: 0.061 µM
EC50 ([4]; EDEN1, MOI 0.01): 13.8 µM
EC50 ([4]; EDEN1, MOI 0.3): 51 µM
EC50 ([5]; Dengue virus, DENV2, Vero): 8.3 µM
EC50 [5]: 8.34 µM
EC50 ([6]; EDEN2, MOI 0.3): 2.43 µM
EC50 ([6]; EDEN2, MOI 0.3 (text)): 2.4 µM
log reduction of viremia (VLR) from day 3 to day 6 (EDEN1 [7]; EDEN1, celgosivir 50 mg/kg BID started at peak viremia (day 3)): 0.85
viremia reduction on day 3 pi (EDEN1 [7]; EDEN1, non-lethal model, celgosivir 50 mg/kg BID from time of infection): 2.9 fold
log reduction of viremia (VLR) from day 3 to day 6 (EDEN2 [8]; EDEN2, celgosivir 50 mg/kg BID started at peak viremia (day 3)): 2.62
viremia reduction on day 3 pi (EDEN2 [8]; EDEN2, non-lethal model, celgosivir 50 mg/kg BID from time of infection): 9.0 fold
pharmacokinetics dose dependence [9]: linear with dose
protection from death (survival) (S221; S221, 10 mg/kg BID from time of infection): could not protect mice from death
protection from lethal infection (survival) (S221; S221, 50 mg/kg BID orally from time of infection): completely protected mice from lethal infection
viremia reduction versus VC on day 3 (S221; S221, lethal ADE model, 10 mg/kg BID from day 0): 1.4 fold
lower viremia level than vehicle control on day 3 pi (S221; S221, lethal ADE model, 50 mg/kg BID from day 0): 2.4 fold
protection from death (survival) (EDEN1 [10]; EDEN1, 10 mg/kg BID from time of infection): could not protect mice from death
viremia reduction versus VC on day 3 (EDEN1 [10]; EDEN1, lethal ADE model, 10 mg/kg BID from day 0): 1.8 fold
lower viremia level than vehicle control on day 3 pi (EDEN1 [10]; EDEN1, lethal ADE model, 50 mg/kg BID from day 0): 4.3 fold
protection from death (survival) (EDEN2 [11]; EDEN2, 10 mg/kg BID from time of infection): 100%
viremia reduction versus VC on day 3 (EDEN2 [11]; EDEN2, lethal ADE model, 10 mg/kg BID from day 0): 3.7 fold
lower viremia level than vehicle control on day 3 pi (EDEN2 [11]; EDEN2, lethal ADE model, 50 mg/kg BID from day 0): 16.5 fold
Survival at day 12 (DENV2; 10 mg/kg twice daily (BID)): 13%
Survival at day 12 (DENV2; 25 mg/kg BID): 63%
Survival at day 12 (DENV2; 50 mg/kg BID): 100%
Survival at day 12 (DENV2; 100 mg/kg once daily (QD)): 0%
